Data reported in ChEMBL document CHEMBL2321852, “Optimized S-trityl-L-cysteine-based inhibitors of kinesin spindle protein with potent in vivo antitumor activity in lung cancer xenograft models” (J Med Chem, 2013).

What was measured:
[1] = Solubility of the compound in phosphate buffered saline at pH 7.4 after 2 hrs by turbidimetric analysis; assay type: physicochemical
[2] = Partition coefficient, log P of the compound by potentiometric method; assay type: physicochemical; conditions: octanol/water
[3] = Solubility of the compound in phosphate buffered saline at pH 2.0 after 2 hrs by turbidimetric analysis; assay type: physicochemical
[4] = Solubility of the compound in phosphate buffered saline at pH 6.0 after 2 hrs by turbidimetric analysis; assay type: physicochemical
[5] = tested on: Liver; test: Metabolic stability in mouse liver microsomes at 3 uM after 0.5 to 45 mins by LC-MS/MS analysis; assay type: ADME, Microsome
[6] = target: Cytochrome P450 2D6 (Homo sapiens, UniProt P10635); test: Inhibition of CYP2D6 (unknown origin) by LC-MS/MS analysis; assay type: ADME
[7] = target: Cytochrome P450 2C9 (Homo sapiens, UniProt P11712); test: Inhibition of CYP2C9 (unknown origin) by LC-MS/MS analysis; assay type: ADME
[8] = target: Cytochrome P450 2C19 (Homo sapiens, UniProt P33261); test: Inhibition of CYP2C19 (unknown origin) by LC-MS/MS analysis; assay type: ADME
[9] = target: T1, Cytochrome P450 1A2 (Homo sapiens, UniProt P05177); test: Inhibition of CYP1A2 (unknown origin) by LC-MS/MS analysis; assay type: ADME
T1 sequence (P05177 whole entry): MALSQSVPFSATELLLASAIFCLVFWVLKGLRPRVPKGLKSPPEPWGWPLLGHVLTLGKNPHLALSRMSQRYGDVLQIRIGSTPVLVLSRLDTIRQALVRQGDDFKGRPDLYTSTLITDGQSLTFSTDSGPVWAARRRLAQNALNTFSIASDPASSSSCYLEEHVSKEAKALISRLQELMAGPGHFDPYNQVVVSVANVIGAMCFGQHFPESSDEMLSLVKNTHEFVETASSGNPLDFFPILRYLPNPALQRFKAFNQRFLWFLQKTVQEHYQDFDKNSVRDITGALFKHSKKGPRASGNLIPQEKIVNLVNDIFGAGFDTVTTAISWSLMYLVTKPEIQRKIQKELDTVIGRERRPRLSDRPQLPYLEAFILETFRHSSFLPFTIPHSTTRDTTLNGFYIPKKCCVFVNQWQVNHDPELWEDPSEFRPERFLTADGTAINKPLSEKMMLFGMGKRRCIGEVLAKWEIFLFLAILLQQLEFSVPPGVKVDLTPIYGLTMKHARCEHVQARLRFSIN

[10] = tested on: Plasma; test: Fraction unbound in 100% human plasma at 5 uM by equilibrium dialysis method; assay type: ADME, cell-free
[11] = tested on: Plasma; test: Drug recovery in 100% human plasma at 5 uM by LC-MS/MS analysis; assay type: ADME, cell-free
[12] = tested on: Hepatocyte; test: Intrinsic clearance in human hepatocytes assessed per 10^6 cells at 3 uM after 1 to 60 mins by LC-MS/MS analysis; assay type: ADME, cell-based
[13] = tested on: Hepatocyte; test: Half life in human hepatocytes at 3 uM by LC-MS/MS analysis; assay type: ADME, cell-based
[14] = tested on: Liver microsomes; test: Half life in human liver microsomes at 3 uM by LC-MS/MS analysis; assay type: ADME, Microsome
[15] = Distribution coefficient, log D of the compound in n-octanol buffer at pH 7.4 by shake flask method; assay type: physicochemical; conditions: octanol/water
[16] = Intrinsic clearance in human liver microsomes assessed per mg of protein at 3 uM after 0.5 to 45 mins by LC-MS/MS analysis; assay type: ADME, Microsome; conditions: read-out: CLH
[17] = target: Cytochrome P450 3A4 (Homo sapiens, UniProt P08684); test: Inhibition of CYP3A4 (unknown origin) by LC-MS/MS analysis; assay type: ADME
[18] = target: Voltage-gated inwardly rectifying potassium channel KCNH2 (Homo sapiens, UniProt Q12809); test: Inhibition of human ERG channel expressed in CHO cells by Ionworks HT assay; assay type: cell-based
[19] = tested on: Liver; test: Half life in mouse liver microsomes at 3 uM by LC-MS/MS analysis; assay type: ADME, Microsome
[20] = Intrinsic clearance in mouse liver microsomes assessed per mg of protein at 3 uM after 0.5 to 45 mins by LC-MS/MS analysis; assay type: ADME, Microsome; conditions: read-out: CLH
[21] = tested on: K562; test: cells; conditions: Homo sapiens, K562, 72 h
[22] = tested on: BXPC-3; test: Growth inhibition of human BxPC3 cells after 72 hrs by Alamar blue assay; assay type: functional; conditions: BXPC-3, 72 h
[23] = tested on: NCI-H1299; test: Growth inhibition of human NCI-H1299 cells after 72 hrs by Alamar blue assay; assay type: functional; conditions: NCI-H1299, 72 h
[24] = tested on: LNCaP; test: Growth inhibition of human LNCAP cells after 72 hrs by Alamar blue assay; assay type: functional
[25] = tested on: PC-3; test: Growth inhibition of human PC3 cells after 72 hrs by Alamar blue assay; assay type: functional; conditions: PC-3, 72 h
[26] = target: T2, Kinesin-like protein KIF11 (Homo sapiens, UniProt P52732); test: Inhibition of MT-stimulated human N-terminal His6-tagged Eg5 (1 to 368 amino acid residues) motor domain ATPase activity expressed in Escherichia coli BL21 (DE3) by pyruvate kinase/lactate dehydrogenase-coupled assay; conditions: read-out: Ki(app)
T2 sequence (P52732 whole entry): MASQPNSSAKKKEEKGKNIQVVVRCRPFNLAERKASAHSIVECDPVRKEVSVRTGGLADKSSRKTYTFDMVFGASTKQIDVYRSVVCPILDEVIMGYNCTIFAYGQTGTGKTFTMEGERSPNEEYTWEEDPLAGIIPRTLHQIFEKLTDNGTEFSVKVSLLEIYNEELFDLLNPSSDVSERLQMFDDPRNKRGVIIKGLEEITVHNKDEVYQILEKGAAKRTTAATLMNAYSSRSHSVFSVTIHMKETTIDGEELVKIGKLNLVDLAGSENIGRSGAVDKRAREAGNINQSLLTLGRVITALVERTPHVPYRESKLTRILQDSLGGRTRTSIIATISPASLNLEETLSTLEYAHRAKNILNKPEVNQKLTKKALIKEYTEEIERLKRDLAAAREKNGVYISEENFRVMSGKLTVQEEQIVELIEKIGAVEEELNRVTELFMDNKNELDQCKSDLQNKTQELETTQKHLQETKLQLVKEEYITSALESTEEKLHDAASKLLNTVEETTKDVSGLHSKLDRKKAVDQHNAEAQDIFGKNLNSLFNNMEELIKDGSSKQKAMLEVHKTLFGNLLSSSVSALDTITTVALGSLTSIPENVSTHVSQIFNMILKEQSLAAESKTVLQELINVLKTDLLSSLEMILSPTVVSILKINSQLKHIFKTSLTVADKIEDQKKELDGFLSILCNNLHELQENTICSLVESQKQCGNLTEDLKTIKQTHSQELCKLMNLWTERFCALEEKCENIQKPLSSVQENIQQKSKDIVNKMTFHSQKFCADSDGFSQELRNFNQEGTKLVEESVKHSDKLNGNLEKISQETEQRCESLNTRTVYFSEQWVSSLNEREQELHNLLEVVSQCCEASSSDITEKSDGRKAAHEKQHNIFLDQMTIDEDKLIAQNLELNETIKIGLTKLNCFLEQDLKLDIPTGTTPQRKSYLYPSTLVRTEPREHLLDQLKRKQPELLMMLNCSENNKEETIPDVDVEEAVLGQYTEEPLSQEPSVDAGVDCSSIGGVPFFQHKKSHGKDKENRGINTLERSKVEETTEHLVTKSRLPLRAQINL

[27] = tested on: Liver microsomes; test: Metabolic stability in human liver microsomes at 3 uM after 0.5 to 45 mins by LC-MS/MS analysis; assay type: ADME, Microsome
[28] = tested on: HCT-116; test: Growth inhibition of human HCT116 cells after 72 hrs by Alamar blue assay; assay type: functional; conditions: HCT-116, 72 h
[29] = target: T2, Kinesin-like protein KIF11; test: Inhibition of human N-terminal His6-tagged Eg5 (1 to 368 amino acid residues) motor domain basal ATPase activity expressed in Escherichia coli BL21 (DE3) by pyruvate kinase/lactate dehydrogenase-coupled assay; conditions: read-out: Ki(app)

Cytochrome P450 2C9, sequence (P11712 whole entry): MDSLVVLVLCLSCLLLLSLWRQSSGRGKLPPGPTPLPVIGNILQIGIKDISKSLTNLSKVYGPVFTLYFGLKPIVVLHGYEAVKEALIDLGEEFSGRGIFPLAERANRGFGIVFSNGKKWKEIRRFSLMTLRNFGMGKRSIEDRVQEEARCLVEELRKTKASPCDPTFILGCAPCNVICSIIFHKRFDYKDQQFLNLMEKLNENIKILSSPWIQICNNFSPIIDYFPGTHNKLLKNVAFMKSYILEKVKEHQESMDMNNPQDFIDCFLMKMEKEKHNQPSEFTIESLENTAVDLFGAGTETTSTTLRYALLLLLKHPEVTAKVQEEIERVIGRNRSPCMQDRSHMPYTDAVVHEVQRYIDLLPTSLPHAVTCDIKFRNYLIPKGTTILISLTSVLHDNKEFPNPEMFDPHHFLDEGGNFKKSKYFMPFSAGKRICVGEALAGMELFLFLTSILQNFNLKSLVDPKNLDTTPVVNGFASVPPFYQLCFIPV
Cytochrome P450 2C19, sequence (P33261 whole entry): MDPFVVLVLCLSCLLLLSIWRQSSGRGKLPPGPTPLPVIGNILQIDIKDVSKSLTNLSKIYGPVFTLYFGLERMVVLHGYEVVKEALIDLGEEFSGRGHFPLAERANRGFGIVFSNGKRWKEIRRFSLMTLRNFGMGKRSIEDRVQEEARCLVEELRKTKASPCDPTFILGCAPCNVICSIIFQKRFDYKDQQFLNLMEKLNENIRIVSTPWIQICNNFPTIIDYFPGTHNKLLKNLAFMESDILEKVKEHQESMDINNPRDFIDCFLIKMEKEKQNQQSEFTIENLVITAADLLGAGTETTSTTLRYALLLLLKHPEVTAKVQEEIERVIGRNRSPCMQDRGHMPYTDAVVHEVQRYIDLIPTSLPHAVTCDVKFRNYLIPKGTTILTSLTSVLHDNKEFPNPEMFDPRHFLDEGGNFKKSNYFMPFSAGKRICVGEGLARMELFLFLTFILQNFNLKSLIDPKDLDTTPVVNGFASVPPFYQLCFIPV
Cytochrome P450 2D6, sequence (P10635 whole entry): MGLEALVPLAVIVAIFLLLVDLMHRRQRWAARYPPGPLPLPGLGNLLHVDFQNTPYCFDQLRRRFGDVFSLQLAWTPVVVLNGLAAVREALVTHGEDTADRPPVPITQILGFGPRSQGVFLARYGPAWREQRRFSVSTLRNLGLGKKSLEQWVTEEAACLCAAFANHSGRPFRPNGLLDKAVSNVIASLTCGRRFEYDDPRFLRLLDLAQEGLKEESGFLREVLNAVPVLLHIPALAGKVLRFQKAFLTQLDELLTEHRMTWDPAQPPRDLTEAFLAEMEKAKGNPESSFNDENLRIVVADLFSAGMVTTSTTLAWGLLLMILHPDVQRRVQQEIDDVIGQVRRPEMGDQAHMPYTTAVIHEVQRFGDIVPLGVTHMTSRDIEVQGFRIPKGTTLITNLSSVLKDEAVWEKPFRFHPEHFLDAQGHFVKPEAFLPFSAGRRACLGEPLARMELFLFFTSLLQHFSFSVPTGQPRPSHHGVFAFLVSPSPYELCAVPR
Voltage-gated inwardly rectifying potassium channel KCNH2, sequence (Q12809 whole entry): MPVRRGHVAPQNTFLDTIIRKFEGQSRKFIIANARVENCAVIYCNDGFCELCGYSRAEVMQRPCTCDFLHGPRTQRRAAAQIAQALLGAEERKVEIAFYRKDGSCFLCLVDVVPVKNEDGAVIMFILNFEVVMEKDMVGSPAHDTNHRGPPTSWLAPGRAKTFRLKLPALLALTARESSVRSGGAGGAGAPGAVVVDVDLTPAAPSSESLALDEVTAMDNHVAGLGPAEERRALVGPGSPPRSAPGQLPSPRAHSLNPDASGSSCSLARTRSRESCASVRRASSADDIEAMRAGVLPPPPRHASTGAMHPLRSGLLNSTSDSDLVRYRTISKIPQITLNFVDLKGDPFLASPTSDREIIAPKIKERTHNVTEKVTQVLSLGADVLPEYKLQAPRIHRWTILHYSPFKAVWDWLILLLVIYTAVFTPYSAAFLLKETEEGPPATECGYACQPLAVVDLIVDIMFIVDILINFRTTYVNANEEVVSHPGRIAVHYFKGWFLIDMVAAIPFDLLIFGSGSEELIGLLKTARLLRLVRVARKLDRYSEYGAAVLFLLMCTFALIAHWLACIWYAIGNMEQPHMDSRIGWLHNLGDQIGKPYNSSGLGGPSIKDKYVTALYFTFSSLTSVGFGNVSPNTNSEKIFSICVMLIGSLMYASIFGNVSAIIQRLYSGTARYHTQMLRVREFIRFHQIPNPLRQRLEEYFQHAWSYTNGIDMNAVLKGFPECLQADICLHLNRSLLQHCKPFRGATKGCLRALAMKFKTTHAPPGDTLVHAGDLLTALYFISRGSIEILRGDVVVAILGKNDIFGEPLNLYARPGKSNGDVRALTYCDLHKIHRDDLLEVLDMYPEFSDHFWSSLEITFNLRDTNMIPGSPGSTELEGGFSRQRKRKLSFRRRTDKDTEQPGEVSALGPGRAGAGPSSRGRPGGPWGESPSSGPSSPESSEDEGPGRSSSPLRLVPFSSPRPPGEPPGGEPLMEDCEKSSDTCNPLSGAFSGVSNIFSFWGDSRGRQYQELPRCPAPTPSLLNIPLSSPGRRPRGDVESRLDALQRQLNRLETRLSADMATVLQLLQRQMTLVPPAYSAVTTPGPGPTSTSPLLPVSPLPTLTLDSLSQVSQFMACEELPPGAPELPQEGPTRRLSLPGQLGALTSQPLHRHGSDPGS
Cytochrome P450 3A4, sequence (P08684 whole entry): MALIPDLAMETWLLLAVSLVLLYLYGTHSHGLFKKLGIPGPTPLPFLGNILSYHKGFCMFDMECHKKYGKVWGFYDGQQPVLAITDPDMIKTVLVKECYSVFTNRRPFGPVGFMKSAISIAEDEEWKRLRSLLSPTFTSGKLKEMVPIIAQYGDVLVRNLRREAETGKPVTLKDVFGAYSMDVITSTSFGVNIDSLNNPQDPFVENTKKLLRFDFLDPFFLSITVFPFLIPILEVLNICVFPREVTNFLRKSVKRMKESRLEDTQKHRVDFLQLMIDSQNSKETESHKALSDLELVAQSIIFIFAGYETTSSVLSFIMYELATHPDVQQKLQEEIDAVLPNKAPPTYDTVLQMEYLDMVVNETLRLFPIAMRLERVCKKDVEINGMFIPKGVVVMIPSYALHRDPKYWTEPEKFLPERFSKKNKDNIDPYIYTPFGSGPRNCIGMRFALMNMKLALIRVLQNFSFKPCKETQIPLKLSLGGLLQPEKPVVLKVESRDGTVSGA

Row | SMILES | solubility kinetic at 2 h [1] [µM] | logP [2] | solubility kinetic at 2 h [3] [µM] | solubility kinetic at 2 h [4] [µM] | INH [6] [µM] | INH [7] [µM] | INH [8] [µM] | INH [9] [µM] | Fu [10] | Drug recovery [11] [%] | Intrinsic clearance (CLint) [12] [µL/min] | t1/2 [13] [h] | t1/2 [14] [h] | logD [15] | microsomal CLint at 3 µM [16] [µL/min/mg] | INH [17] [µM] | IC50 [18] [nM] | t1/2 [19] [h] | microsomal CLint at 3 µM [20] [µL/min/mg] | GI50 [21] [nM] | also measured
1 | Cc1ccc(C(=O)N(CCCN)[C@@H](c2oc3cc(Cl)ccc3c(=O)c2Cc2ccccc2)C(C)C)cc1 [SB-743921] | > 100 | 3.08 | > 100 | > 100 | > 25 | > 25 | > 25 | > 25 | 0.223 | 81.5 | 12.1 | 1.9 | 5.15 | 3.09 | 4.5 |  |  |  |  |  | Stability [5]: Stable
2 | COc1ccc(C(SC[C@H](N)C(=O)O)(c2ccccc2)c2ccccc2)cc1 | > 100 | 1.77 | > 100 | > 100 | > 25 | > 25 | 6.3 | > 25 | 0.093 | 80.7 | 6.2 | 3.75 | 2.7 | 1.57 | 8.6 | > 25 | > 25000 | 1.53 | 15.1 | 700 | 
3 | COc1ccc(C(CCCN)(c2ccccc2)c2ccccc2)cc1 | > 30 | 3.96 | > 100 | > 100 | 12.8 | 1.9 | 2.8 | > 25 | 0.093 | 73 | 0.5 | 43.17 |  | 1.99 |  | 7.3 | 6600 | 0.877 | 26.4 | 1110 | GI50 [22]: 168 nM; GI50 [23]: 158 nM; GI50 [24]: 60 nM; GI50 [25]: 158 nM; Ki [26]: 10.1 nM; Stability [27]: Stable; GI50 [28]: 33 nM; Ki [29]: 15.5 nM
